Test results: paper PMC10480161, “Identification of potent and selective N-myristoyltransferase inhibitors of Plasmodium vivax liver stage hypnozoites and schizonts” (Nature Communications, 2023)
Where “and” joins values, the source holds several entries; their conditions need not be identical. Identical values can stand only once.

How the values were obtained:
[1] = HepG2 cytotoxicity assay (Live/Dead staining); conditions: human, HepG2 cells
Description: (§1) Therefore, we assessed cytotoxicity in the human hepatoma HepG2 cell line. We required a PvNMT to HsNMT SI > 20 for further screening. HepG2 cells were exposed to the compounds at concentrations ranging from 1 to 20 µM for […], and toxicity was assessed via live-dead staining.
(§2) The viability of the HepG2 cell line following exposure to the compounds was determined by a Live/Dead cell assay kit (Invitrogen). Briefly, cells were added to a 96-well plate at a concentration of 5000 cells per well, excluding the exterior wells. Cells were exposed to the compounds at different concentrations ranging from 1 to 20 µM. Cells were washed every 24 h and supplemented with fresh doses of compounds. At 72 h post-treatment, 1 µM calcein-AM and 1 µM ethidium homodimer were added to the wells and incubated for 10 min at 37 °C. After washing with PBS, the cells were visualized with fluorescent microscopy (Keyence BZ-X700).

HepG2 cells = assay: HepG2 cytotoxicity assay (Live/Dead staining); conditions: for Percentage of live HepG2 cells compared with diluent controls: replicates
Description: as §1, §2

P. falciparum NF54 = assay: P. falciparum blood stage assay (SYBR Green); type: cell-based, Plasmodium falciparum; conditions: 72 h; for P. falciparum blood-stage development (parasite DNA level fluorescence): untreated = 129; for IC50: ring-stage parasites, relative IC50
Description: To assess whether any of the PvNMTis developed here could qualify as TCP-1 candidates, we assessed the effect of each compound on blood-stage P. falciparum parasites, as there is currently no well-established in vitro platform for screening P. vivax blood-stage parasites. Synchronized P. falciparum NF54 ring-stage parasites were treated for 72 h with each compound at various concentrations, ranging from 0.625 µM to 10 µM, and parasite DNA replication was measured using a fluorescent DNA binding dye (SYBR Green).
Sorbitol-synchronized P. falciparum NF54 ring-stage parasites were cultured at a parasitemia of 0.5% and hematocrit of 1.5% in a 96-well microtiter plate. Parasites were treated with each NMT inhibitor compound at 0.625, 1.25, 2.5, 5, or 10 µM for 72 h. Direct lysis of the blood cells to release the parasite DNA was performed by adding 100 μl of LBS buffer containing SYBR green I DNA binding dye to each well. […] ICEstimator regression analysis (http://www.antimalarial-icestimator.net/) was used to obtain relative IC50 values for each compound.

Row | SMILES | IC50 at 48 h [1] | Percentage of live HepG2 cells compared with diluent controls (HepG2 cells; 1 μM) | Percentage of live HepG2 cells compared with diluent controls (HepG2 cells; 2.5 μM) | Percentage of live HepG2 cells compared with diluent controls (HepG2 cells; 5 μM) | Percentage of live HepG2 cells compared with diluent controls (HepG2 cells; 10 μM) | Percentage of live HepG2 cells compared with diluent controls (HepG2 cells; 20 μM) | P. falciparum blood-stage development (parasite DNA level fluorescence) (P. falciparum NF54; 0.625 uM) | P. falciparum blood-stage development (parasite DNA level fluorescence) (P. falciparum NF54; 1.25 uM) | P. falciparum blood-stage development (parasite DNA level fluorescence) (P. falciparum NF54; 2.5 uM) | P. falciparum blood-stage development (parasite DNA level fluorescence) (P. falciparum NF54; 5 uM) | P. falciparum blood-stage development (parasite DNA level fluorescence) (P. falciparum NF54; 10 uM) | IC50 (P. falciparum NF54; Plasmodium falciparum, NF54) | IC50 (HepG2 cells) | IC50 (P. falciparum NF54)
1 | c1cncc(CCOc2ccccc2-c2ccnc(N3CCNCC3)c2)c1 [Compound 12j] | > 20000 nM | 85.5703% and 82.8678% | 74.0847% and 82.3481% | 81.2567% and 75.202% | 74.4485% and 73.0193% | 72.4216% and 71.8759% | 106.8 | 108.9 | 108.6 | 101.9 | 74.22 | 1250 nM | – | –
2 | Fc1ccc(-c2ccnc(N3CCNCC3)c2)c(OCCc2cccnc2)c1 [Compound 12l] | > 20000 nM | 89.7539% and 87.5192% | 87.1294% and 87.1034% | 86.8955% and 86.7396% | 88.7665% and 86.09% | 76.2415% and 75.9816% | 110.1 | 110.9 | 110.4 | 99.67 | 86.75 | 370 nM | – | –
3 | Cc1n[nH]c(C)c1CCOc1cc(F)ccc1-c1ccnc(N2CCNCC2)c1 [Compound 12q] | – | 99.2906% and 100.564% | 95.6786% and 92.2225% | 91.8587% and 84.219% | 83.4135% and 96.0684% | 80.0613% and 94.8991% | 114.1 | 119.1 | 116.1 | 98.36 | 97.95 | – | > 20000 nM | 380 nM
4 | Cc1nn(C)c(C)c1CCOc1ccccc1-c1cccc(OCCN(C)C)c1 [Compound 26b] | > 20000 nM | 97.4196% and 92.7163% | 92.7942% and 91.1312% | 90.5335% and 86.8176% | 83.2575% and 84.0111% | 77.3069% and 77.3588% | 123.3 | 124.2 | 115.6 | 103.2 | 94.32 | 710 nM | – | –
5 | Cc1nn(C)c(C)c1CCOc1cc(F)ccc1-c1cccc(OCCN(C)C)c1 [Compound 26c] | > 20000 nM | 106.359% and 107.918% | 107.866% and 101.058% | 101.681% and 95.3408% | 87.7011% and 97.3677% | 83.4394% and 83.5174% | 127.1 | 126.9 | 117.8 | 108.1 | 97.66 | 820 nM | – | –
6 | Cc1nn(C)c(C)c1CCOc1ccc2ccccc2c1-c1ccnc(N2CCNCC2)c1 [Compound 30a] | – | 103.422% and 100.304% | 101.733% and 94.8731% | 94.7431% and 110.101% | 109.841% and 95.0809% | 87.0514% and 94.4833% | 115.4 | 121.5 | 115.2 | 95.74 | 95.74 | – | > 20000 nM | 440 nM
